In ChEMBL document CHEMBL4354833, “Kinetic Target-Guided Synthesis: Reaching the Age of Maturity” (J Med Chem, 2020):
Converted amounts (≈) assume the structure as drawn.

Assays:
Coagulation factor X = Coagulation factor X (Homo sapiens, UniProt P00742); assay: Inhibition human FA10a using Boc-LeuGly-Arg-AMC fluorogenic substrate
[1] = molecular target: Luciferin 4-monooxygenase (Photinus pyralis, UniProt P08659); assay: Inhibition of Photinus pyralis luciferase using ATP and D-luciferin in presence of Coenzyme A and DL-cysteine by luminescence based assay
[2] = molecular target: T1, Signal transducer and activator of transcription 5B (Homo sapiens, UniProt P51692); assay: Binding affinity to MBP-tagged recombinant STAT5b-SH2 domain (unknown origin) using carboxyfluoresceine-labeled phosphotyrosine octapeptide incubated for 12 hrs by fluorescence polarization assay
T1 sequence (P51692 whole entry): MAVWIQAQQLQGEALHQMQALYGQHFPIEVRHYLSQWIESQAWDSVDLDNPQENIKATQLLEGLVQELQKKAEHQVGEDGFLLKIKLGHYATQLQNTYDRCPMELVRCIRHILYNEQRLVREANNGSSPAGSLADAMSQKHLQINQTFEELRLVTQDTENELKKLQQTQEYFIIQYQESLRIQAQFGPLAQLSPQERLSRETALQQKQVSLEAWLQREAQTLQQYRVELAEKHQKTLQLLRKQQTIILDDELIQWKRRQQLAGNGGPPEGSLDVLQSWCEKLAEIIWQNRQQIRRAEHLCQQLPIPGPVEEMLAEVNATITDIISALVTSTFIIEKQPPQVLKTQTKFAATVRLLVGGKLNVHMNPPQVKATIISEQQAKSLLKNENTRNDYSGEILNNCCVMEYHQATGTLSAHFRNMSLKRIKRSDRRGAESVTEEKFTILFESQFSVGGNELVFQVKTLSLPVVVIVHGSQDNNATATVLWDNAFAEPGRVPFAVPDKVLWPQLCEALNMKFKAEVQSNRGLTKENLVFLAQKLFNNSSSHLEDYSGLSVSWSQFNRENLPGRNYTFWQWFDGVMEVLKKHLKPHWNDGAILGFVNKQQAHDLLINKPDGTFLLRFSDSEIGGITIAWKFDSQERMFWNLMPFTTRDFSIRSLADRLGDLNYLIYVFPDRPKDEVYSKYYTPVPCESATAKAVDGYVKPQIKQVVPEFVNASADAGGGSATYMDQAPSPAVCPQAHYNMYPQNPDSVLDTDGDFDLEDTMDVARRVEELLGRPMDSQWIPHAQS

Carbonic anhydrase 2 = Carbonic anhydrase 2 (Bos taurus, UniProt P00921); assay: Binding affinity to bovine carbonic anhydrase 2
[3] = Biodistribution in RBC of SCID mouse measured after 10 mins; format: ADME, organism-based; conditions: erythrocyte
[4] = Biodistribution in plasma of SCID mouse measured after 10 mins; format: ADME, organism-based; conditions: in vivo
[5] = Inhibition of Enterovirus A71 3c protease
Prothrombin = Prothrombin (Homo sapiens, UniProt P00734); assay: Inhibition of thrombin (unknown origin)
[6] = molecular target: T2, Signal transducer and activator of transcription 5B (Mus musculus) (UniProt P42232); assay: Inhibition of STAT5b phosphorylation in mouse BaF3/FLT3-ITD cells at 25 uM after 6 hrs by Western blot analysis relative to control; format: cell-based
T2 sequence (whole entry): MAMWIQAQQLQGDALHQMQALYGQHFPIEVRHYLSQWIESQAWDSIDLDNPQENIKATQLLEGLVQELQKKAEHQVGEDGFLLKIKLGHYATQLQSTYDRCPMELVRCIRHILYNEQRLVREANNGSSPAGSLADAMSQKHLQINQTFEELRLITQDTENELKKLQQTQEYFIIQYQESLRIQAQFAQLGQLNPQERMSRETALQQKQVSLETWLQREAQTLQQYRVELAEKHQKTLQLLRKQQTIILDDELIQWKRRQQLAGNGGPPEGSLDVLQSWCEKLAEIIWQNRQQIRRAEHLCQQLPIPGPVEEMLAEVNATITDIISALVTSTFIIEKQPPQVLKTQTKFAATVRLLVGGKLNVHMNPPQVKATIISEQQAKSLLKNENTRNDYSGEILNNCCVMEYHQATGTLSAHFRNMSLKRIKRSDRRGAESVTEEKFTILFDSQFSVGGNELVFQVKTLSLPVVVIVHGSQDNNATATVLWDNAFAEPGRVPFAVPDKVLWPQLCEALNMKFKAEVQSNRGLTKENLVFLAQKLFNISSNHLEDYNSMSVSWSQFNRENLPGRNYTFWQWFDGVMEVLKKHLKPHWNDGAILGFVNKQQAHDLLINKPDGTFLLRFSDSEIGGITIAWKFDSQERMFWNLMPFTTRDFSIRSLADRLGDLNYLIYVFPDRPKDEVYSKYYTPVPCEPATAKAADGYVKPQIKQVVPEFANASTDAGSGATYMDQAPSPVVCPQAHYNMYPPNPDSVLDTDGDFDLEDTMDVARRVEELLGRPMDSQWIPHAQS

[7] = Antitumor activity against mouse BaF3/FLT3-ITD cells implanted in NSG mouse assessed as induction of tumor growth regression at 200 mg/kg, sc QD for 14 days relative to control; format: functional
NAD kinase 1 = molecular target: T3, NAD kinase 1 (Listeria monocytogenes serovar 1/2a (strain ATCC BAA-679 / EGD-e), UniProt Q8Y8D7); assay: Inhibition of Listeria monocytogenes NAD kinase assessed as suppression of reduced NADP formation by yeast glucose-6-phosphate dehydrogenase coupled assay
T3 sequence (Q8Y8D7 whole entry): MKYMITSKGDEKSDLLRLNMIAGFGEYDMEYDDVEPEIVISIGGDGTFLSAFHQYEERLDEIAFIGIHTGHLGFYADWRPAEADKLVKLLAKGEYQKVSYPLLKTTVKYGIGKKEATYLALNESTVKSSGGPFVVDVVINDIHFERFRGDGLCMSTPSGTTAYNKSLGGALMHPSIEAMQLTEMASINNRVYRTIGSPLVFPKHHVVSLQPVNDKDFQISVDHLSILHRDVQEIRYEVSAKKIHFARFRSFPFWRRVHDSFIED

[8] = molecular target: T4, Signal transducer and activator of transcription 5B (Homo sapiens) (UniProt P51692); assay: Binding affinity to MBP-tagged recombinant STAT5b-SH2 domain (unknown origin) assessed as change in melting temperature by CETSA method
T4 sequence (whole entry): T1 sequence (P51692 whole entry)

[9] = molecular target: T2, Signal transducer and activator of transcription 5B (Mus musculus); assay: Inhibition of STAT5b in mouse BaF3/FLT3-ITD cells incubated for 6 hrs by CETSA-ITDRF assay; format: cell-based
[10] = molecular target: T5, Prostaglandin G/H synthase 2 (Homo sapiens, UniProt P35354); assay: Binding affinity to human COX2
T5 sequence (P35354 whole entry): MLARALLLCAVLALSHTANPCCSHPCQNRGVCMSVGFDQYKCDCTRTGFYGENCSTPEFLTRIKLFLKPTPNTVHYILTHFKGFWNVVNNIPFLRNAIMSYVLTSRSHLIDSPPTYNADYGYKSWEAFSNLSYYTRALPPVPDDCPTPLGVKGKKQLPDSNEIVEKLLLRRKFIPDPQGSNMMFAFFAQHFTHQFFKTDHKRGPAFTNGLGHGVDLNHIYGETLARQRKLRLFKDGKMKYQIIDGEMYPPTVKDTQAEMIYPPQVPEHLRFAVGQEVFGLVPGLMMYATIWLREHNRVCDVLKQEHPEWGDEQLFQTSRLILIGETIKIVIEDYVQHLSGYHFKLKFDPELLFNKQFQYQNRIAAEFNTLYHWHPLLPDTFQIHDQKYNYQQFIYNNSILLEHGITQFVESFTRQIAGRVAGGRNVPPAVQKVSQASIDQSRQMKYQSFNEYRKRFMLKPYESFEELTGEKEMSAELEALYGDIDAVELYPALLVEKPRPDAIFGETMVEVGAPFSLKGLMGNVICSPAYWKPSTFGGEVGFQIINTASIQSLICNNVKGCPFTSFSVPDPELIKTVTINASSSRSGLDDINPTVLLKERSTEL

[11] = molecular target: T6, Bifunctional ligase/repressor BirA (Staphylococcus aureus, UniProt A0A0E7NXW5); assay: Binding affinity to Staphylococcus aureus biotin protein ligase
T6 sequence (A0A0E7NXW5 whole entry): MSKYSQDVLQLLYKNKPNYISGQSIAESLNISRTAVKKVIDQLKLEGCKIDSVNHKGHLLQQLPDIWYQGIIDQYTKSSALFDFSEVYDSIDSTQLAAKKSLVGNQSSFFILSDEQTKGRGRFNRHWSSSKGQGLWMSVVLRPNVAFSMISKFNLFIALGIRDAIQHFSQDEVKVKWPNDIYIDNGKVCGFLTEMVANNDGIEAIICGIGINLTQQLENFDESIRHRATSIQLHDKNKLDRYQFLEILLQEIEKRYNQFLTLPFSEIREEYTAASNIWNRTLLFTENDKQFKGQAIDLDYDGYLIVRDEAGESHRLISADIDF

Rattus norvegicus = organism: Rattus norvegicus; assay: animal or person; conditions: 3 h
Description: Antiinflammatory activity in rat model of carrageenan-induced paw edema model after 3 hrs

Bacterial 70S ribosome = assay: Binding affinity to Escherichia coli 70S ribosome assessed as reduction in BODIPY-Erythromycin A binding incubated for 1 hr by fluorescence polarization assay; format: subcellular
[12] = molecular target: Bacterial 70S ribosome (Bacteria) (UniProt P0A7V0+P60723+P0AG67+P0A7R5+P0A7R9+P0A7S3+P0A7S9+P0AG59+P0ADZ4+P0A7T3+P0AG63+P0A7T7+P0A7U3+P0A7U7+P68679+P0A7V3+P0A7V8+P0A7W1+P02358+P02359+P0A7W7+P0A7X3+P0A7J3+P0A7J7+P0AA10+P0ADY3+P02413+P0ADY7+P0AG44+P0C018+P0A7K6+P0A7L0+P0A7L3+P0AG48+P61175+P0ADZ0+P60624+P68919+P0A7L8+P0A7M2+P0A7M6+P60422+P0AG51+P0A7N1+P0A7M9+P0A7N4+P0A7N9+P0A7P5+P0A7Q1+Q2EEQ2+P0A7Q6+P60438+P62399+P0AG55+P0A7K2); assay: Inhibition of 70S ribosome in Escherichia coli cell free system assessed as reduction in protein synthesis by measuring EmGFP synthesis at 1 uM by cell-free translation inhibition method relative to control; format: subcellular
Streptococcus pneumoniae = assay: Antimicrobial activity against Streptococcus pneumoniae ATCC 49619; format: functional

Sequence of Coagulation factor X (P00742 41-179 limits assumed): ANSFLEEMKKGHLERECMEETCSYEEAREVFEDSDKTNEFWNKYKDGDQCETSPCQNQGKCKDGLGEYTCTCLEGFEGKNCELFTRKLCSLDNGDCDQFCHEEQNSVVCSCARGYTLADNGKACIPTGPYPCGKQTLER
Sequence of Coagulation factor X (P00742 235-488 limits assumed): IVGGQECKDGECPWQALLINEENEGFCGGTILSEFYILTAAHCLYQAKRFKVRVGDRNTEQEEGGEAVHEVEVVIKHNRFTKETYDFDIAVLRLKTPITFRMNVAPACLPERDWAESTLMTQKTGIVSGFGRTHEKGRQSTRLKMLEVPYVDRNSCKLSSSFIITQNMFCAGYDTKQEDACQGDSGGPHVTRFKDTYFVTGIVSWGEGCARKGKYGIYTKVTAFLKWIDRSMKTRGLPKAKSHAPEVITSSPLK
Sequence of Carbonic anhydrase 2 (P00921 whole entry): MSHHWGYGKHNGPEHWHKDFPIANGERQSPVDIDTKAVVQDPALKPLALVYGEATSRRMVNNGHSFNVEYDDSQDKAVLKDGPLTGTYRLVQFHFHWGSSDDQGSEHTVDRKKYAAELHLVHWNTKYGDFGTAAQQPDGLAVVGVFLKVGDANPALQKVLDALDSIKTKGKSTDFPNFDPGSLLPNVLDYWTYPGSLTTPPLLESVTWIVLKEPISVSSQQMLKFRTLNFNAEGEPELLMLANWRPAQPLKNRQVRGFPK
Sequence of Luciferin 4-monooxygenase (P08659 whole entry, the tested form may be a part): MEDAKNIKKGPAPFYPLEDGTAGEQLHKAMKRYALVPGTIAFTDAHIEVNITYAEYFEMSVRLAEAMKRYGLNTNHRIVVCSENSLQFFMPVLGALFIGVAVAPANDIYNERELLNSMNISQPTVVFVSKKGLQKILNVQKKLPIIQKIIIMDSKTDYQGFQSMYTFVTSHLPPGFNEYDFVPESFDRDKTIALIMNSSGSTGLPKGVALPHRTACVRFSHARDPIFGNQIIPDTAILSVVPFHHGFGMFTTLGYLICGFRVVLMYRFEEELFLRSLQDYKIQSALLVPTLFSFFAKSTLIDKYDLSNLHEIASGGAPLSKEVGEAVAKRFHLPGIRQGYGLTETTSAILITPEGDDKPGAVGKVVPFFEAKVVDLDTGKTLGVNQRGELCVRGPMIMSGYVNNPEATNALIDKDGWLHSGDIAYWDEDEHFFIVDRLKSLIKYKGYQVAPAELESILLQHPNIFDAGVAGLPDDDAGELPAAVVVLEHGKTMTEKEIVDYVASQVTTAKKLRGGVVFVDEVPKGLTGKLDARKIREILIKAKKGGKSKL

N=C(N)c1ccc(CN)cc1
Ki (Coagulation factor X): 680 µM

Nc1ncnc2c1ncn2[C@H]1O[C@@H](COP(=O)(O)OC(=O)c2cccc(-c3noc(-c4ccccc4F)n3)c2)[C@H](O)[C@@H]1O
IC50 [1]: 0.01 µM

O=C(O)c1nonc1NCn1ccnn1
Ki [2]: > 5000 µM

CC(C)[C@H](C(=O)NCc1cc([18F])ccn1)n1cc(-c2ccc(S(N)(=O)=O)cc2)nn1
Kd (Carbonic anhydrase 2): 0.0005 µM | Drug uptake [3]: 90% | Drug uptake [4]: 10%

CCOC(=O)CC[C@H](C[C@@H]1CCCNC1=O)NC(=O)[C@H](Cc1ccccc1)NC(=O)C(O)CC(=O)c1ccncc1 (stereo not given in full)
IC50 [5]: 1.43 µM

N=C(N)c1ccc(NC(C(=O)NCc2ccccc2)c2ccccc2)cc1 (stereo not given)
Ki (Prothrombin): 0.05 µM

O=C(O)c1nonc1NCn1cccn1
Ki [2]: > 5000 µM

Nc1nonc1C(=O)O
Ki [2]: 420 µM

CCOC(=O)/C=C/[C@H](C[C@@H]1CCCNC1=O)NC(=O)[C@H](Cc1ccccc1)NC(=O)C=O
IC50 [5]: 16.4 µM

O=C[C@H](C[C@@H]1CCCNC1=O)NC(=O)[C@H](Cc1ccccc1)NC(=O)C(O)CC(=O)c1ccncc1 (stereo not given in full)
IC50 [5]: 0.15 µM

O=C(O)c1nonc1NCn1nnnc1-c1ccc(F)cc1
Ki [2]: 0.6 µM

Cc1cc(C(=O)N[C@@H](Cc2ccc(F)cc2)C(=O)N[C@H](C=O)C[C@@H]2CCCNC2=O)no1
IC50 [5]: 0.32 µM

O=C(O)c1nonc1NCn1nnnc1Cc1ccccc1
IC50 [2]: 2.9 µM | inhibition [6]: > 50% | Activity [7]: 28%

O=C(O)c1nonc1NCn1nnnc1-c1cccc(F)c1
Ki [2]: > 5000 µM

[N-]=[N+]=NC[C@H]1O[C@@H](n2c(SCC(=O)NC[C@H]3O[C@@H](n4cnc5c(N)ncnc54)[C@H](O)[C@@H]3O)nc3c(N)ncnc32)[C@H](O)[C@@H]1O
Ki (NAD kinase 1): 25 µM

COC(=O)c1nonc1NCn1nnnc1-c1cccc(OC(F)(F)F)c1
Ki [2]: > 5000 µM

O=C(O)c1nonc1NCn1cncn1
Ki [2]: > 5000 µM

O=C(O)c1nonc1NCn1cnnn1
IC50 [2]: 1.4 µM | ΔTm [8]: 8 °C | Occ50 [9]: 28 µM

Cc1cnc(Cn2cc(-c3onc(-c4ccccc4)c3-c3ccc(S(N)(=O)=O)cc3)nn2)c(C)c1[18F]
Kd [10]: 0.01 µM

O=C(O)c1nonc1NCn1nnnc1-c1ccccc1
Ki [2]: > 5000 µM

O=C1N[C@H]2[C@H](CS[C@H]2CCCCc2cn(CCCNc3ccc([N+](=O)[O-])c4nonc34)nn2)N1
Ki [11]: 1.4 µM

Cc1cc(-n2cc(-c3ccc(F)cc3)nn2)n(-c2ccc(S(C)(=O)=O)cc2)n1
ED50 (Rattus norvegicus): 0.44 mg/kg

Cc1cc(-n2cc(-c3ccc(N)cc3)nn2)n(-c2ccc(S(C)(=O)=O)cc2)n1
ED50 (Rattus norvegicus): 0.12 mg/kg

O=C(O)c1nonc1NCn1nnc2ccccc21
Ki [2]: > 5000 µM

CC[C@H]1OC(=O)[C@@](C)(F)C(=O)[C@H](C)[C@@H](O[C@@H]2O[C@H](C)C[C@H](N(C)C)[C@H]2O)[C@](C)(OC)C[C@@H](C)C(=O)[C@H](C)[C@H]2N(CCCCn3cc(-c4cccc(N(C)C)c4)nn3)C(=O)O[C@]12C
Kd (Bacterial 70S ribosome): 0.0014 µM | inhibition [12]: 37% | MIC (Streptococcus pneumoniae): 5 ng/mL (≈ 5.73 nM)

CC[C@H]1OC(=O)[C@@](C)(F)C(=O)[C@H](C)[C@@H](O[C@@H]2O[C@H](C)C[C@H](N(C)C)[C@H]2O)[C@](C)(OC)C[C@@H](C)C(=O)[C@H](C)[C@H]2N(CCCCn3cc(-c4cccc(N)c4)nn3)C(=O)O[C@]12C [SOLITHROMYCIN]
Kd (Bacterial 70S ribosome): 0.0006 µM | inhibition [12]: 47% | MIC (Streptococcus pneumoniae): 6 ng/mL (≈ 7.1 nM)

CC[C@H]1OC(=O)[C@@](C)(F)C(=O)[C@H](C)[C@@H](O[C@@H]2O[C@H](C)C[C@H](N(C)C)[C@H]2O)[C@](C)(OC)C[C@@H](C)C(=O)[C@H](C)[C@H]2N(CCCCN=[N+]=[N-])C(=O)O[C@]12C
Kd (Bacterial 70S ribosome): 0.0021 µM | MIC (Streptococcus pneumoniae): 2 ng/mL (≈ 2.75 nM)

O=C(O)c1nonc1NCn1nnnc1-c1cccc(C(F)(F)F)c1
Ki [2]: > 5000 µM

COC(=O)c1nonc1NCn1cnnn1
IC50 [2]: 37 µM
